Experimental data published in ChEMBL document CHEMBL1127898, “The role of oxygen in the photoinduced antiviral activity of hypericin” (1994).

Key:
Type in all cases: functional
[1] = tested on: Equine infectious anemia virus; assay: Antiviral activity against equine infectious anemia virus (EIAV) in deoxygenation condition effected by using beta-carotene at a concentration of 64 uM
[2] = tested on: Equine infectious anemia virus; assay: Antiviral activity against equine infectious anemia virus (EIAV) in deoxygenation condition effected by using beta-carotene at a concentration of 80 uM
[3] = tested on: Equine infectious anemia virus; assay: Antiviral activity against equine infectious anemia virus (EIAV) in oxygenated condition after 10 min of illumination, using focal immunoassay
[4] = tested on: Equine infectious anemia virus; assay: Antiviral activity against equine infectious anemia virus (EIAV) in deoxygenation condition effected by using beta-carotene at a concentration of 0 uM
[5] = tested on: Equine infectious anemia virus; assay: Antiviral activity against equine infectious anemia virus (EIAV) in hypoxic condition obtained by passing argon gas, after 0 min of illumination, using focal immunoassay
[6] = tested on: Equine infectious anemia virus; assay: Antiviral activity against equine infectious anemia virus (EIAV) in hypoxic condition obtained by passing argon gas, after 10 min of illumination, using focal immunoassay
[7] = tested on: Equine infectious anemia virus; assay: Antiviral activity against equine infectious anemia virus (EIAV) in hypoxic condition obtained by passing nitrogen gas, after 10 min of illumination using focal, immunoassay
[8] = tested on: Equine infectious anemia virus; assay: Antiviral activity against equine infectious anemia virus (EIAV) in hypoxic condition obtained by passing nitrogen gas, after 0 min of illumination using focal, immunoassay
[9] = tested on: Equine infectious anemia virus; assay: Antiviral activity against equine infectious anemia virus (EIAV) in deoxygenation condition effected by using beta-carotene at a concentration of 32 uM

`Cc1cc(O)c2c(=O)c3c(O)cc(O)c4c5c(O)cc(O)c6c(=O)c7c(O)cc(C)c8c1c2c(c34)c(c78)c65` [HYPERICIN] was tested, and the Infectious virus [1] was 0 ffu ml-1, the Infectious virus [2] was 0 ffu ml-1 and the Infectious virus [3] was 0 ffu ml-1. It also gave an Infectious virus [4] of 0 ffu ml-1, an Infectious virus [5] of 5975 ffu ml-1 and an Infectious virus [6] of 225 ffu ml-1. The Infectious virus [7] was 25 ffu ml-1, the Infectious virus [8] was 14500 ffu ml-1 and the Infectious virus [9] was 0 ffu ml-1.
